According to ChEMBL document CHEMBL1129561 (J Med Chem, 1996):

Legend:
Progesterone receptor [1] = target: T1, Progesterone receptor (Homo sapiens, UniProt P06401)
T1 sequence (P06401 whole entry): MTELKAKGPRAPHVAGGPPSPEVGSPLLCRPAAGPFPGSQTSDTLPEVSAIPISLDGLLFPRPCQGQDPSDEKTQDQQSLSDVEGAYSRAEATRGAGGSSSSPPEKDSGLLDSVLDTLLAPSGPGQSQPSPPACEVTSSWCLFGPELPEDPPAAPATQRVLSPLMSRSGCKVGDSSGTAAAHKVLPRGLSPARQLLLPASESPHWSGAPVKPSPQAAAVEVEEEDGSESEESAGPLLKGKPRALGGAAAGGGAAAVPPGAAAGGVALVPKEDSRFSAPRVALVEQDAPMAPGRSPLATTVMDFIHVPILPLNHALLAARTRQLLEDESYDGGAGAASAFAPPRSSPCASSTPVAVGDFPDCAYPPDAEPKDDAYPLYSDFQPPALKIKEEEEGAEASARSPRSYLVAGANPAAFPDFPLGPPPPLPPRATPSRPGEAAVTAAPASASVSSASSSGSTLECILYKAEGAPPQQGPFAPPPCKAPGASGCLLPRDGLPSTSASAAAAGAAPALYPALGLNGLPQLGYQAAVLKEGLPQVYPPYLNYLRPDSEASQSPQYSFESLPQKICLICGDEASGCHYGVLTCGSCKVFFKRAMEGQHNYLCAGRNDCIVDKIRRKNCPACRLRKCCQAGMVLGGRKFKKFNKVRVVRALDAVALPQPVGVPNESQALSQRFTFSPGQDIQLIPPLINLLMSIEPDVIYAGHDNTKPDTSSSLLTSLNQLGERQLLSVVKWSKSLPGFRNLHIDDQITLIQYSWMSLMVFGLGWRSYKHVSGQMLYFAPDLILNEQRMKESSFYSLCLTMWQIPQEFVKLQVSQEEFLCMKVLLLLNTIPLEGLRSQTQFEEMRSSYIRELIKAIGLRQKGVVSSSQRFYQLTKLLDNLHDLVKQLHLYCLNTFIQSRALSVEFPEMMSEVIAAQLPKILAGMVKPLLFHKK

Glucocorticoid receptor = target: T2, Glucocorticoid receptor (Homo sapiens, UniProt P04150)
T2 sequence (P04150 whole entry): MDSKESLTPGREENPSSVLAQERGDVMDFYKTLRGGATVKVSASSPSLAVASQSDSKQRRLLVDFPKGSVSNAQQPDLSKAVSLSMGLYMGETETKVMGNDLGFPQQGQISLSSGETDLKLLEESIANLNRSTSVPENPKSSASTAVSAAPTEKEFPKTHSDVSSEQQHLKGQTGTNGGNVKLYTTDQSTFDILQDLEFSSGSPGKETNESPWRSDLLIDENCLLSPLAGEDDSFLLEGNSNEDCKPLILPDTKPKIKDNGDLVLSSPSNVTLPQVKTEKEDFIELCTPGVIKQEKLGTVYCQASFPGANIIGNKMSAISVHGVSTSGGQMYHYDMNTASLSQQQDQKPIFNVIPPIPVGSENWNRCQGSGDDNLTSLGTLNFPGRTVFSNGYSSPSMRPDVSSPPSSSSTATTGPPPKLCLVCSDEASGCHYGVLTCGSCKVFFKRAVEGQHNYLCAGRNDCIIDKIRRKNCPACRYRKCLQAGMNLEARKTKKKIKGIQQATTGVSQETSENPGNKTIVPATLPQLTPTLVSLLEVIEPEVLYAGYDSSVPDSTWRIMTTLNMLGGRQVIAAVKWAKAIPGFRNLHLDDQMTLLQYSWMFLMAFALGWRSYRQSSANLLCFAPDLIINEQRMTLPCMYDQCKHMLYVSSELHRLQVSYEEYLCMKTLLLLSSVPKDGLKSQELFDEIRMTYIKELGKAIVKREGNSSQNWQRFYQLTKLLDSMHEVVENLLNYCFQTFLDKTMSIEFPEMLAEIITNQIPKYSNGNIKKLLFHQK
Description: Binding affinity was determined for human glucocorticoid receptor(hGR).

Progesterone receptor [2] = target: T1, Progesterone receptor; remark: listed apart in the source
Progesterone receptor [3] = target: T1, Progesterone receptor; remark: listed apart in the source
Progesterone receptor [4] = target: T1, Progesterone receptor; remark: listed apart in the source
[5] = target: T3, Progesterone receptor (Homo sapiens) (UniProt P06401); details: CV-1
T3 sequence (whole entry): T1 sequence (P06401 whole entry)

Androgen receptor = target: T4, Androgen receptor (Homo sapiens, UniProt P10275)
T4 sequence (P10275 whole entry): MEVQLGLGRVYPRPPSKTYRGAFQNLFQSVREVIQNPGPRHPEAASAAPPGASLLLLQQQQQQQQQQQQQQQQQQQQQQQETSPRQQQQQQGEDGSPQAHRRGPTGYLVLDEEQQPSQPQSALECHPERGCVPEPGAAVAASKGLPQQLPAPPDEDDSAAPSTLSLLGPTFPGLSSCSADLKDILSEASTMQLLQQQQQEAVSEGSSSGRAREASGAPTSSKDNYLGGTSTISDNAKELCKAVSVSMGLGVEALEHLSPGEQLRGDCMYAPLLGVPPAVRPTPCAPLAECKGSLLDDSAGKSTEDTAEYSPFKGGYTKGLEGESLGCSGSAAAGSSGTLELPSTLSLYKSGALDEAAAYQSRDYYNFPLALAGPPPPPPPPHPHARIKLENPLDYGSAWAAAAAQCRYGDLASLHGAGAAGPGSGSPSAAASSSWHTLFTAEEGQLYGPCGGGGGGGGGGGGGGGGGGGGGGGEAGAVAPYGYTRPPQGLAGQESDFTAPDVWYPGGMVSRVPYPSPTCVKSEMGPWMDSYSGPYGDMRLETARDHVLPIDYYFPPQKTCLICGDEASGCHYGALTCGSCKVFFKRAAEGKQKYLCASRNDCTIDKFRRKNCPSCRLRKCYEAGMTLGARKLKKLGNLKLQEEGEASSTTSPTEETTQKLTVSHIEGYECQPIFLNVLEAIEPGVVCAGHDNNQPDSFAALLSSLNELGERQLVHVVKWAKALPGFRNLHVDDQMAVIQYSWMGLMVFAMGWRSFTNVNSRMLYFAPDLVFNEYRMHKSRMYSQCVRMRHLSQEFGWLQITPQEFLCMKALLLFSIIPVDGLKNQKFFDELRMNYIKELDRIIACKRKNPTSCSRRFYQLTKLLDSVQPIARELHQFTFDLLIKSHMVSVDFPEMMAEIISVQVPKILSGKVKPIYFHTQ
Description: Binding affinity determined against human Androgen receptor

SMILES: C=C1CCCC(C)(C)C1Cc1cc(OC)c(Br)cc1O (stereo unspecified)
- IC50 (Progesterone receptor [1]): 163 nM
- Ki (Glucocorticoid receptor): 2210 nM
- IC50 (Progesterone receptor [2]): 405 nM
- EC50 (Progesterone receptor [3]): 4020 nM
- Ki (Progesterone receptor [4]): 77 nM
- Max inhibition [5]: 55%

SMILES: C=C1CCC[C@H](C)[C@H]1Cc1cc(OC)c(Br)cc1O
- IC50 (Progesterone receptor [1]): 300 nM
- Ki (Androgen receptor): 1640 nM
- Ki (Glucocorticoid receptor): 3700 nM
- IC50 (Progesterone receptor [2]): 1050 nM
- Ki (Progesterone receptor [4]): 71 nM
- Max inhibition [5]: 93%

SMILES: COc1cc(CC2C(C)(C)CC(C)=CC23CC3)c(OC(C)=O)cc1Br (stereo unspecified)
- IC50 (Progesterone receptor [1]): 440 nM
- Ki (Androgen receptor): 3010 nM
- Ki (Glucocorticoid receptor): 2570 nM
- IC50 (Progesterone receptor [2]): 160 nM
- EC50 (Progesterone receptor [3]): 2120 nM
- Ki (Progesterone receptor [4]): 98 nM
- Max inhibition [5]: 26%

SMILES: C=C1C=CCC(C)(C)C1Cc1cc(OC)c(Br)cc1O (stereo unspecified)
- IC50 (Progesterone receptor [1]): 280 nM
- Ki (Androgen receptor): 1520 nM
- Ki (Glucocorticoid receptor): 2780 nM
- IC50 (Progesterone receptor [2]): 783 nM
- Ki (Progesterone receptor [4]): 156 nM
- Max inhibition [5]: 71%

SMILES: C=C1[C@H](O)CCC(C)(C)[C@@H]1Cc1cc(OC)c(Br)cc1O
- IC50 (Progesterone receptor [1]): 1700 nM
- Ki (Androgen receptor): 10000 nM (not active)
- Ki (Glucocorticoid receptor): > 10000 nM
- IC50 (Progesterone receptor [2]): 3400 nM
- Ki (Progesterone receptor [4]): 10000 nM (not active)
- Max inhibition [5]: 73%

SMILES: CCOC1=CC(=O)C(Cc2ccc([N+](=O)[O-])cc2)C(C)(C)C1 (stereo unspecified)
- Ki (Androgen receptor): 10000 nM (not active)
- Ki (Glucocorticoid receptor): 10000 nM (not active)
- IC50 (Progesterone receptor [2]): 2440 nM
- Ki (Progesterone receptor [4]): > 10000 nM
- Max inhibition [5]: 93%

SMILES: C=C1C[C@H](C)C[C@@H](C)[C@@H]1Cc1cc(OC)c(Br)cc1O
- IC50 (Progesterone receptor [1]): 350 nM
- Ki (Androgen receptor): 1140 nM
- Ki (Glucocorticoid receptor): 1660 nM
- IC50 (Progesterone receptor [2]): 985 nM
- Ki (Progesterone receptor [4]): 84 nM
- Max inhibition [5]: 63%

SMILES: C=C1C=C(C)C[C@@H](C)[C@@H]1Cc1cc(OC)c(Br)cc1OC(C)=O
- IC50 (Progesterone receptor [1]): 147 nM
- Ki (Androgen receptor): 1500 nM
- Ki (Glucocorticoid receptor): 2380 nM
- IC50 (Progesterone receptor [2]): 350 nM
- EC50 (Progesterone receptor [3]): 3010 nM
- Ki (Progesterone receptor [4]): 21 nM
- Max inhibition [5]: 52%

SMILES: C=C1C=C(C)CC(C)(C)C1Cc1cc(OC)c(Br)cc1O (stereo unspecified)
- Ki (Androgen receptor): 1450 nM
- Ki (Glucocorticoid receptor): 1260 nM
- Max inhibition [5]: 37%

SMILES: C=C1CCC[C@@H](C)[C@@H]1Cc1cc(OC)c(Br)cc1O
- IC50 (Progesterone receptor [1]): 200 nM
- Ki (Androgen receptor): 570 nM
- Ki (Glucocorticoid receptor): 2290 nM
- IC50 (Progesterone receptor [2]): 320 nM
- EC50 (Progesterone receptor [3]): 3010 nM
- Ki (Progesterone receptor [4]): 69 nM
- Max inhibition [5]: 62%

SMILES: C=C1[C@@H](Cc2cc(OC)c(Br)cc2O)C(C)(C)CC[C@@]1(C)O
- IC50 (Progesterone receptor [1]): 430 nM
- Ki (Androgen receptor): 6660 nM
- Ki (Glucocorticoid receptor): > 10000 nM
- IC50 (Progesterone receptor [2]): 2000 nM
- Ki (Progesterone receptor [4]): 275 nM
- Max inhibition [5]: 78%

SMILES: C=C1C=C(C)CC(C)(C)C1Cc1ccc([N+](=O)[O-])c(C)c1 (stereo unspecified)
- IC50 (Progesterone receptor [1]): 510 nM
- Ki (Androgen receptor): 2700 nM
- Ki (Glucocorticoid receptor): 6810 nM
- IC50 (Progesterone receptor [2]): 1800 nM
- Ki (Progesterone receptor [4]): 28.8 nM
- Max inhibition [5]: 85%

SMILES: C=C1C=C(C)CC(C)(C)C1Cc1ccc2nonc2c1 (stereo unspecified)
- IC50 (Progesterone receptor [1]): 775 nM
- Ki (Androgen receptor): > 10000 nM
- Ki (Glucocorticoid receptor): 8360 nM
- IC50 (Progesterone receptor [2]): 1950 nM
- Ki (Progesterone receptor [4]): 88 nM
- Max inhibition [5]: 72%

SMILES: C=C1C=C(C)CC(C)(C)C1Sc1ccc([N+](=O)[O-])cc1 (stereo unspecified)
- Ki (Androgen receptor): > 10000 nM
- Ki (Glucocorticoid receptor): 8220 nM
- Max inhibition [5]: 44%

SMILES: C=C1C=C(C)CC(C)(C)C1(O)Cc1ccc([N+](=O)[O-])cc1 (stereo unspecified)
- Ki (Androgen receptor): 6450 nM
- Ki (Glucocorticoid receptor): 8510 nM
- Max inhibition [5]: 87%

SMILES: C=C1C=C(C)CC(C)(C)C1Cc1cc(OC)c(Br)cc1OC(C)=O (stereo unspecified)
- IC50 (Progesterone receptor [1]): 770 nM
- Ki (Androgen receptor): 1940 nM
- Ki (Glucocorticoid receptor): 2200 nM
- IC50 (Progesterone receptor [2]): 710 nM
- EC50 (Progesterone receptor [3]): 1460 nM
- Ki (Progesterone receptor [4]): 59.6 nM
- Max inhibition [5]: 42%

SMILES: C=C1CCC(C)(C)C1Cc1cc(OC)c(Br)cc1O (stereo unspecified)
- IC50 (Progesterone receptor [1]): 250 nM
- Ki (Androgen receptor): 1920 nM
- Ki (Glucocorticoid receptor): 4530 nM
- IC50 (Progesterone receptor [2]): 1200 nM
- Ki (Progesterone receptor [4]): 441 nM
- Max inhibition [5]: 98%

SMILES: C=C1C=C(C)C(Cc2cc(OC)c(Br)cc2O)C(C)(C)C1 (stereo unspecified)
- Ki (Androgen receptor): 1590 nM
- Ki (Glucocorticoid receptor): 2670 nM
- Max inhibition [5]: 66%

SMILES: C=C1CCCC(C)(C)[C@@H]1Cc1cc(OC)c(Br)cc1O
- IC50 (Progesterone receptor [1]): 290 nM
- Ki (Glucocorticoid receptor): 1780 nM
- IC50 (Progesterone receptor [2]): 597 nM
- EC50 (Progesterone receptor [3]): 3260 nM
- Ki (Progesterone receptor [4]): 34 nM
- Max inhibition [5]: 45%

SMILES: C=C1C(C)=CCC(C)(C)[C@@H]1Cc1cc(OC)c(Br)cc1OC(C)=O
- IC50 (Progesterone receptor [1]): 210 nM
- Ki (Androgen receptor): 6390 nM
- Ki (Glucocorticoid receptor): 4110 nM
- IC50 (Progesterone receptor [2]): 660 nM
- Ki (Progesterone receptor [4]): 455 nM
- Max inhibition [5]: 83%
